These results are taken from the Kinase Knowledgebase extract (Sharma et al. 2016).

As a reminder, the IC50 is the concentration needed to halve the response being measured. Read a low IC50 as higher potency.

Sequence of MAPK14 (human) (Q16539 whole entry, looked up): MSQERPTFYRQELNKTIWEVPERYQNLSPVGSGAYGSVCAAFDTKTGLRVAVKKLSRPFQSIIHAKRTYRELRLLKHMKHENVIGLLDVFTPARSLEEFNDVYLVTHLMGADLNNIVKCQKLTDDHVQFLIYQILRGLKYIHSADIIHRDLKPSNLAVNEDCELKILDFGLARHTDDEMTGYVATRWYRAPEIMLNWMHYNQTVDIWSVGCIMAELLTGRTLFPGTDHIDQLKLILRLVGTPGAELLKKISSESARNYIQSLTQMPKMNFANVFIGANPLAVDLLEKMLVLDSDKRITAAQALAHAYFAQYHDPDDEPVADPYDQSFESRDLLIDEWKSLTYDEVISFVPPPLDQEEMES

This test addresses MAPK14 (human) (UniProt Q16539). Description: Inhibition of MAPK14 Kinase Activity.
As to `COCCNC(=O)c1csc(-c2sc(C)nc2-c2ccc(F)cc2)n1`, the IC50 was at most 1000 nM. The result for `Cc1nc(-c2ccc(F)cc2)c(-c2nc(C(=O)N3CCN(c4ccccc4C#N)CC3)cs2)s1` reads at most 1000 nM. The result for `CC(=O)C(=O)N1CCC(c2[nH]nc(-c3ccc(F)cc3)c2-c2nc(C(=O)NC(C)C)cs2)CC1` reads at most 1000 nM; that for `CC(C)NC(=O)c1csc(-c2oc(CNC(=O)c3ccc(OCc4ccccc4)cc3)nc2-c2ccc(F)cc2)n1`, at most 1000 nM; that for `CC(C)NC(=O)c1csc(-c2c(-c3ccc(F)cc3)noc2CNCC#N)n1`, at most 1000 nM. The result for `CCC(CO)NCc1nc(-c2ccc(F)cc2)c(-c2nc(C(=O)NC(C)C)cs2)o1` (stereo not drawn) reads at most 1000 nM. Compound `COc1cc(CNC(=O)c2csc(-c3sc(C)nc3-c3ccc(F)cc3)n2)cc(OC)c1` showed an IC50 of at most 1000 nM. In the case of `CC(C)NC(=O)c1csc(-c2c(-c3ccc(F)cc3)noc2CNC(=O)c2ccc([N+](=O)[O-])cc2Cl)n1` it was at most 1000 nM; in that of `Cc1nc(-c2ccc(F)cc2)c(-c2nc(C(=O)NCCNC(=O)OC(C)(C)C)cs2)s1`, at most 1000 nM. In the case of `CC(C)NC(=O)c1csc(-c2oc(CNC(=O)c3cccc(O)c3O)nc2-c2ccc(F)cc2)n1` it was at most 1000 nM; in that of `CC(C)NC(=O)c1csc(-c2oc(CN3CCN(C(=O)c4ccc5cccc(O)c5n4)CC3)nc2-c2ccc(F)cc2)n1`, at most 1000 nM; in that of `CC(C)NC(=O)c1csc(-c2oc(CNC(=O)C(Cc3ccc(O)cc3)NC(=O)OC(C)(C)C)nc2-c2ccc(F)cc2)n1` (stereo not drawn), at most 1000 nM. Compound `CC(C)NC(=O)c1csc(-c2oc(CNC(=O)c3cscn3)nc2-c2ccc(F)cc2)n1` had a concentration for half-maximal inhibition (IC50) of at most 1000 nM. The result for `CCNC(=O)c1csc(-c2c(-c3ccc(F)cc3)n[nH]c2C2CCNCC2)n1` reads at most 1000 nM. The result for `Cc1ccc(S(=O)(=O)NCCNC(=O)c2csc(-c3sc(C)nc3-c3ccc(F)cc3)n2)cc1` reads at most 1000 nM; that for `CC(C)NC(=O)c1csc(-c2c(-c3ccc(F)cc3)noc2CN2CCCC2CO)n1` (stereo not drawn), at most 1000 nM. In the case of `Cc1onc(-c2ccc(Cl)cc2)c1-c1ccn(C(=O)NC2CCCC2)n1` it was at most 1000 nM.

`Cc1onc(-c2ccc(Cl)cc2)c1-c1ccn(C(=O)NCC(C)C)n1` registered an IC50 of at most 1000 nM. The result for `CC(C)NC(=O)c1csc(-c2[nH]c(CN3CCOCC3)nc2-c2ccc(F)cc2)n1` reads at most 1000 nM; that for `Cc1[nH]nc(-c2ccc(F)cc2)c1-c1nc(C(=O)NCc2ccc3c(c2)OCO3)cs1`, at most 1000 nM; that for `CC(C)NC(=O)c1csc(-c2c(-c3ccc(F)cc3)n[nH]c2C2CCN(C(=O)C3CN(C(=O)OC(C)(C)C)CCN3)CC2)n1` (stereo not drawn), at most 1000 nM. The result for `COc1ccccc1CC(=O)NCc1nc(-c2ccc(F)cc2)c(-c2nc(C(=O)NC(C)C)cs2)o1` reads at most 1000 nM. In the case of `CC(C)NC(=O)c1csc(-c2oc(CNC(=O)c3ccc(C(F)(F)F)cc3[N+](=O)[O-])nc2-c2ccc(F)cc2)n1`, the IC50 is at most 1000 nM. The result for `CCCCCCCC(=O)NCc1nc(-c2ccc(F)cc2)c(-c2nc(C(=O)NC(C)C)cs2)o1` reads at most 1000 nM. The result for `CC(C)NC(=O)c1csc(-c2oc(CNC(=O)c3cc(F)ccc3[N+](=O)[O-])nc2-c2ccc(F)cc2)n1` reads at most 1000 nM; that for `CC(C)NC(=O)c1csc(-c2c(-c3ccc(F)cc3)n[nH]c2C2CCN(C(=O)c3cc(Cl)ccn3)CC2)n1`, at most 1000 nM; that for `Cc1cc(C(=O)NCc2nc(-c3ccc(F)cc3)c(-c3nc(C(=O)NC(C)C)cs3)o2)n[nH]1`, at most 1000 nM. In the case of `CC(C)NC(=O)c1csc(-c2c(-c3ccc(F)cc3)noc2CNC(=O)C=Cc2ccccc2F)n1` it was at most 1000 nM.

On to `COC(=O)N1CCC(c2[nH]nc(-c3ccc(F)cc3)c2-c2nc(C(=O)NC(C)C)cs2)CC1`, for which the IC50 is at most 1000 nM.

In the case of `Cc1nc(-c2ccc(F)cc2)c(-c2nc(C(=O)NCCc3ccc(O)cc3)cs2)s1`, the IC50 was at most 1000 nM. Turning to `CONC(=O)c1csc(-c2c(-c3ccc(F)cc3)n[nH]c2C2CCNCC2)n1`, the concentration for half-maximal inhibition (IC50) was at most 1000 nM. The result for `CC(C)NC(=O)c1csc(-c2oc(CN3CCN(C(=O)c4ccc(Oc5ccccc5)cc4)CC3)nc2-c2ccc(F)cc2)n1` reads at most 1000 nM; that for `CC(C)NC(=O)c1csc(-c2oc(CNC(=O)C(C)(C)C)nc2-c2ccc(F)cc2)n1`, at most 1000 nM; that for `C#CCNC(=O)c1csc(-c2c(-c3ccc(F)cc3)n[nH]c2C2CCNCC2)n1`, at most 1000 nM. The result for `COc1ccc(CNC(=O)c2csc(-c3sc(C)nc3-c3ccc(F)cc3)n2)cc1O` reads at most 1000 nM; that for `COc1cc(OC)c(C(=O)N2CCN(Cc3nc(-c4ccc(F)cc4)c(-c4nc(C(=O)NC(C)C)cs4)o3)CC2)cc1OC`, at most 1000 nM. With `CC(C)NC(=O)c1csc(-c2oc(CN3CCN(C(=O)C4CCCN4C(=O)OC(C)(C)C)CC3)nc2-c2ccc(F)cc2)n1` (stereo not drawn), the IC50 was at most 1000 nM. In the case of `CC(=O)Nc1ccc(NC(=O)c2csc(-c3sc(C)nc3-c3ccc(F)cc3)n2)cn1` it was at most 1000 nM.

`CC(=O)N1CCN(Cc2nc(-c3ccc(F)cc3)c(-c3nc(C(=O)NC(C)C)cs3)o2)CC1` came in with a half-maximal inhibitory concentration (IC50) of at most 1000 nM.

Turning to `CC(C)NC(=O)c1csc(-c2oc(CNC(=O)c3cc(C(C)C)cc(C(C)C)c3O)nc2-c2ccc(F)cc2)n1`, the half-inhibitory concentration (IC50) was at most 1000 nM. Consider `CC(C)NC(=O)c1csc(-c2oc(CN3CCN(C(=O)c4cccc(O)c4O)CC3)nc2-c2ccc(F)cc2)n1`, for which the IC50 was at most 1000 nM. The result for `CC(C)NC(=O)c1csc(-c2oc(CN3CCN(C(=O)c4cc([N+](=O)[O-])ccc4Cl)CC3)nc2-c2ccc(F)cc2)n1` reads at most 1000 nM; that for `CC(C)NC(=O)c1csc(-c2oc(CNC(=O)c3cccc(F)c3F)nc2-c2ccc(F)cc2)n1`, at most 1000 nM.

Compound `CC(=O)Nc1cccc(C(=O)N2CCC(c3[nH]nc(-c4ccc(F)cc4)c3-c3nc(C(=O)NC(C)C)cs3)CC2)c1` displayed an IC50 of at most 1000 nM. Turning to `COc1cc(C(=O)N2CCN(Cc3nc(-c4ccc(F)cc4)c(-c4nc(C(=O)NC(C)C)cs4)o3)CC2)cc(OC)c1O`, the IC50 was at most 1000 nM.

As for `CC(C)NC(=O)c1csc(-c2oc(CNC(=O)c3cccc(O)c3)nc2-c2ccc(F)cc2)n1`, the half-inhibitory concentration (IC50) is at most 1000 nM. `CC(C)NC(=O)c1csc(-c2oc(CNC(=O)C(O)CCl)nc2-c2ccc(F)cc2)n1` (stereo not drawn) gave an IC50 of at most 1000 nM. The result for `CCCCOc1ccc(C(=O)N2CCC(c3[nH]nc(-c4ccc(F)cc4)c3-c3nc(C(=O)NC(C)C)cs3)CC2)cc1` reads at most 1000 nM. In the case of `CC(C)NC(=O)c1csc(-c2oc(CNC(=O)c3cc(O)ccc3O)nc2-c2ccc(F)cc2)n1` it was at most 1000 nM; in that of `Cc1onc(-c2ccc(F)cc2)c1-c1ccn(C(=O)NC(C)C)n1`, at most 1000 nM; in that of `COc1ccc(C=CC(=O)N2CCN(Cc3nc(-c4ccc(F)cc4)c(-c4nc(C(=O)NC(C)C)cs4)o3)CC2)cc1O`, at most 1000 nM. In the case of `COc1cc(C(=O)NCc2nc(-c3ccc(F)cc3)c(-c3nc(C(=O)NC(C)C)cs3)o2)c([N+](=O)[O-])cc1OC` it was at most 1000 nM; in that of `CC(C)NC(=O)c1csc(-c2c(-c3ccc(F)cc3)n[nH]c2C2CCN(C(=O)c3cccnc3)CC2)n1`, at most 1000 nM.

`CC(C)NC(=O)c1csc(-c2oc(CNCCC(C)(C)C)nc2-c2ccc(F)cc2)n1` had a half-maximal inhibitory concentration (IC50) of at most 1000 nM. Turning to `CC(C)NC(=O)c1csc(-c2oc(CNC(=O)C(F)(F)F)nc2-c2ccc(F)cc2)n1`, the IC50 is at most 1000 nM. The result for `CC(C)NC(=O)c1csc(-c2c(-c3ccc(F)cc3)n[nH]c2C2CCN(C(=O)c3ccncc3)CC2)n1` reads at most 1000 nM.

`COc1ccccc1CC(=O)N1CCN(Cc2nc(-c3ccc(F)cc3)c(-c3nc(C(=O)NC(C)C)cs3)o2)CC1` had a 50% inhibitory concentration (IC50) of at most 1000 nM. In the case of `O=C(NCc1ccccc1F)c1csc(-c2c(-c3ccc(F)cc3)n[nH]c2C2CCNCC2)n1` it was at most 1000 nM; in that of `O=C(NCc1cccnc1)c1csc(-c2c(-c3ccc(F)cc3)n[nH]c2C2CCN(C(=O)CO)CC2)n1`, at most 1000 nM; in that of `CC(C)NC(=O)c1csc(-c2oc(CN3CCN(C(=O)CCc4ccccc4O)CC3)nc2-c2ccc(F)cc2)n1`, at most 1000 nM. The result for `CC(C)NC(=O)c1csc(-c2c(-c3ccc(F)cc3)noc2CN2CCNCC2)n1` reads at most 1000 nM; that for `Cc1nc(-c2ccc(F)cc2)c(-c2nc(C(=O)NCc3ccccc3Cl)cs2)s1`, at most 1000 nM.

`CC(C)NC(=O)c1csc(-c2oc(CNC(=O)C3CCCCC3)nc2-c2ccc(F)cc2)n1` returned a half-inhibitory concentration (IC50) of at most 1000 nM. In the case of `Cc1onc(-c2ccc(Cl)cc2)c1-c1ccn(C(=O)NC2CCCCC2)n1` it was at most 1000 nM; in that of `CC(C)NC(=O)c1csc(-c2c(-c3ccc(F)cc3)n[nH]c2C2CCN(C(=O)c3cc(O)ccc3[N+](=O)[O-])CC2)n1`, at most 1000 nM; in that of `COc1ccccc1CCNC(=O)c1csc(-c2sc(C)nc2-c2ccc(F)cc2)n1`, at most 1000 nM.

Compound `CC(C)NC(=O)c1csc(-c2[nH][nH]c(=O)c2-c2ccc(F)cc2)n1` showed an IC50 of at most 1000 nM.

In the case of `CC(C)NC(=O)c1csc(-c2oc(CNC(=O)c3ccc(-c4ccc(O)cc4)cc3)nc2-c2ccc(F)cc2)n1`, the 50% inhibitory concentration (IC50) was at most 1000 nM. In the case of `CCNC(=O)c1csc(-c2c(-c3ccc(F)cc3)n[nH]c2C2CCN(C(=O)CO)CC2)n1` it was at most 1000 nM; in that of `CC(C)NC(=O)c1csc(-c2c(-c3ccc(F)cc3)n[nH]c2C2CCN(C(=O)c3ncc[nH]3)CC2)n1`, at most 1000 nM. `CC(C)NC(=O)c1csc(-c2c(-c3ccc(F)cc3)noc2C2CCN(C(=O)CO)CC2)n1`: the IC50 is at most 1000 nM. In the case of `Cc1ccc([N+](=O)[O-])c(C(=O)NCc2nc(-c3ccc(F)cc3)c(-c3nc(C(=O)NC(C)C)cs3)o2)c1` it was at most 1000 nM.

The compound `CC(C)NC(=O)c1csc(-c2oc(CNC(=O)c3cc(O)c(O)c(O)c3)nc2-c2ccc(F)cc2)n1` displayed an IC50 of at most 1000 nM.

Compound `Cc1nc(-c2ccc(F)cc2)c(-c2nc(C(=O)NCC3CCCO3)cs2)s1` (stereo not drawn) had an IC50 of at most 1000 nM. The result for `CC(C)NC(=O)c1csc(-c2c(-c3ccc(F)cc3)n[nH]c2C2CCN(C(=O)c3cscn3)CC2)n1` reads at most 1000 nM; that for `COCC(=O)N1CCC(c2[nH]nc(-c3ccc(F)cc3)c2-c2nc(C(=O)NC(C)C)cs2)CC1`, at most 1000 nM. In the case of `Cc1nc(-c2ccc(F)cc2)c(-c2nc(C(=O)N3CCCC4CCCCC43)cs2)s1` (stereo not drawn) it was at most 1000 nM. The result for `CCC(CO)NC(=O)c1csc(-c2sc(C)nc2-c2ccc(F)cc2)n1` (stereo not drawn) reads at most 1000 nM.
